Where two headings read alike, the source gives them in different places.

In assay [1] the test system is ventral prostate and levator ani of immature castrated male Sprague Dawley rats. Briefly: Ventral Prostate and Levator ani Weight in vivo Assay (agonist activity). Also noted: key to % Prostate Stimulation / % levator ani Stimulation: level 1 agonist active if it produced greater than or equal to 30% stimulation of levator ani or ventral prostate at 30 mg/kg; level 2 agonist active if it produced greater than or equal to 5% but less than 30% stimulation of levator ani or ventral prostate at 30 mg/kg; listed herein as “inactive” as they did not meet the specified criteria defined above. Particulars: once daily for five days, oral, vehicle = 0%, testosterone propionate = 100%, criteria at 30 mg/kg; for change in vivo at 30 mg/kg: Rattus norvegicus, 120 h. The procedure: Immature (approximately 50 g) castrated male Sprague Dawley rats (Charles River) were treated once daily for five days with test compound ([…], in 30% cyclodextrin or 0.5% methylcellulose vehicle), or with testosterone propionate (administered subcutaneously by injection at the nape of the neck at 5 mg/kg, in a volume of 0.1 mL in sesame oil), or with vehicle (1 mL of 30% cyclodextrin or 0.5% methylcellulose, given orally). On the sixth day, the rats were euthanized by asphyxiation in carbon dioxide. Ventral prostates and levator ani. muscle were removed and their wet weights determined.
Test compound activity was determined as the percent stimulation of tissue weight, with the vehicle-treated control group set to zero percent and the testosterone alone-treated control group set to 100%.

Assay [2] deals with ventral prostate and seminal vesicle of immature castrated male Sprague Dawley rats. Put plainly: Ventral Prostate and Seminal Vesicle Weight in vivo Assay (antagonist activity, with testosterone propionate). Also noted: key to Inhibition of prostate (non-weight prostate weight, mg) / Inhibition of seminal vesicle (non-weight seminal vesicle weight, mg): level 1 agonist active if it produced greater than or equal to 30% stimulation of levator ani or ventral prostate at 30 mg/kg; level 2 agonist active if it produced greater than or equal to 5% but less than 30% stimulation of levator ani or ventral prostate at 30 mg/kg; listed herein as “inactive” as they did not meet the specified criteria defined above. Particulars: test compound oral plus testosterone propionate 2 mg/kg s.c., five days, criteria at 30 mg/kg; for inhibition in vivo at 30 mg/kg: Rattus norvegicus, 120 h. On the procedure: Immature (approximately 50 g) castrated male Sprague Dawley rats (Charles River) were treated once daily for five days with test compound ([…], in 30% cyclodextrin or 0.5% methylcellulose vehicle) and with testosterone propionate (given subcutaneously by injection at the nape of the neck at 2 mg/kg, in a volume of 0.1 mL in sesame oil). On the sixth day, the rats were euthanized by asphyxiation in carbon dioxide. Ventral prosatates and seminal vesicles were removed and their wet weights determined. Test compound activity was determined as the percent inhibition of testosterone-enhanced tissue weights, with a vehicle-treated control group set to zero percent and a testosterone alone-treated control group set to 100%.

[3] abbreviates: levator ani wet weight, read-out: % levator ani Stimulation.
Where [4] appears, read: ventral prostate wet weight, read-out: % Prostate Stimulation.
[5] abbreviates: seminal vesicle wet weight, read-out: Inhibition of seminal vesicle (non-weight seminal vesicle weight, mg).
[6] abbreviates: ventral prostate wet weight, read-out: Inhibition of prostate (non-weight prostate weight, mg).

As for `CC12CC(C(F)(F)F)=NN1C(N)=N/C2=N\c1ccc(C#N)c(C(F)(F)F)c1` (stereo not drawn) [Compound 1, 4-(6-Amino-3a-methyl-2-trifluoromethyl-3,3a-dihydro-imidazo[1,5-b]pyrazol-4-ylideneamino)-2-trifluoromethyl-benzonitrile], the change in vivo at 30 mg/kg in assay [1] (setting [3]) and in assay [1] (setting [4]) was at least 30% throughout. In addition, the results for the inhibition in vivo at 30 mg/kg in assay [2] (setting [5]) and in assay [2] (setting [6]) were at least 30% and 5 to 30%, respectively.
Turning to `C[C@]12CC(C(F)(F)F)=NN1C(N)=N/C2=N\c1ccc(C#N)c(C(F)(F)F)c1` [Compound 2, 4-(6-Amino-3aR-methyl-2-trifluoromethyl-3,3a-dihydro-imidazo[1,5-b]pyrazol-4-ylideneamino)-2-trifluoromethyl-benzonitrile], the change in vivo at 30 mg/kg in assay [1] (setting [3]) and in assay [1] (setting [4]) was at least 30% throughout. In addition, the inhibition in vivo at 30 mg/kg in assay [2] (setting [6]) lay in the range of 5 to 30%. Also, the “Inhibition of seminal vesicle (non-weight seminal vesicle weight, mg)” value in assay [2] (seminal vesicle wet weight) was “inactive”.
Regarding `C[C@@]12CC(C(F)(F)F)=NN1C(N)=N/C2=N\c1ccc(C#N)c(C(F)(F)F)c1` [Compound 3, 4-(6-Amino-3aS-methyl-2-trifluoromethyl-3,3a-dihydro-imidazo[1,5-b]pyrazol-4-ylideneamino)-2-trifluoromethyl-benzonitrile], the values for the change in vivo at 30 mg/kg in assay [1] (setting [3]) and in assay [1] (setting [4]) were at least 30% and 5 to 30%, respectively. Besides, the inhibition in vivo at 30 mg/kg in assay [2] (setting [5]) is 5 to 30%; in assay [2] (setting [6]), at least 30%.
On to `CC12CC(C(F)(F)F)=NN1C(N)=N/C2=N\c1ccc(Cl)c(Cl)c1` (stereo not drawn) [Compound 4, 4-(3,4-Dichloro-phenylimino)-3a-methyl-2-trifluoromethyl-3a,4-dihydro-3H-imidazo[1,5-b]pyrazol-6-ylamine], for which, in assay [1] (levator ani wet weight), the “% levator ani Stimulation” value is “inactive”. Moreover, the “% Prostate Stimulation” value in assay [1] (ventral prostate wet weight) was “inactive”. The inhibition in vivo at 30 mg/kg in assay [2] (setting [5]) and in assay [2] (setting [6]) was 5 to 30% in each case.
Turning to `CC12CC(C(F)(F)F)=NN1C(N)=N/C2=N\c1ccc([N+](=O)[O-])c(C(F)(F)F)c1` (stereo not drawn) [Compound 5, 3a-Methyl-4-(4-nitro-3-trifluoromethyl-phenylimino)-2-trifluoromethyl-3a,4-dihydro-3H-imidazo[1,5-b]pyrazol-6-ylamine], the “% levator ani Stimulation” value in assay [1] (levator ani wet weight) is “inactive”. Further, in assay [1] (ventral prostate wet weight), the “% Prostate Stimulation” value is “inactive”. Moreover, the inhibition in vivo at 30 mg/kg in assay [2] (setting [5]) is at least 30%. Further, the “Inhibition of prostate (non-weight prostate weight, mg)” value in assay [2] (ventral prostate wet weight) was “inactive”.
For `CC12CC=NN1C(N)=N/C2=N\c1ccc(C#N)c(C(F)(F)F)c1` (stereo not drawn) [Compound 6, 4-(6-Amino-3a-methyl-3,3a-dihydro-imidazo[1,5-b]pyrazol-4-ylideneamino)-2-trifluoromethyl-benzonitrile], the “% levator ani Stimulation” value in assay [1] (levator ani wet weight) was “inactive”. Besides, the “% Prostate Stimulation” value in assay [1] (ventral prostate wet weight) is “inactive”. In assay [2] (setting [5]), the inhibition in vivo at 30 mg/kg lay within 5 to 30%. Also, the “Inhibition of prostate (non-weight prostate weight, mg)” value in assay [2] (ventral prostate wet weight) was “inactive”.
On to `CCOC(=O)C1=NN2C(N)=N/C(=N\c3ccc(C#N)c(C(F)(F)F)c3)C2(C)C1` (stereo not drawn) [Compound 7, 6-Amino-4-(4-cyano-3-trifluoromethyl-phenylimino)-3a-methyl-3a,4-dihydro-3H-imidazo[1,5-b]pyrazole-2-carboxylic acid ethyl ester], for which the change in vivo at 30 mg/kg in assay [1] (setting [3]) and in assay [1] (setting [4]) was 5 to 30% each time. In addition, in assay [2] (setting [5]), the inhibition in vivo at 30 mg/kg is 5 to 30%. In assay [2] (ventral prostate wet weight), the “Inhibition of prostate (non-weight prostate weight, mg)” value was “inactive”.
On to `CCC12CC(C(F)(F)F)=NN1C(N)=N/C2=N\c1ccc(C#N)c(C(F)(F)F)c1` (stereo not drawn) [Compound 8, 4-(6-Amino-3a-ethyl-2-trifluoromethyl-3,3a-dihydro-imidazo[1,5-b]pyrazol-4-ylideneamino)-2-trifluoromethyl-benzonitrile], for which the change in vivo at 30 mg/kg in assay [1] (setting [3]) and in assay [1] (setting [4]) was 5 to 30% in each case. In addition, the inhibition in vivo at 30 mg/kg in assay [2] (setting [5]) lay in the range of 5 to 30%. Further, in assay [2] (ventral prostate wet weight), the “Inhibition of prostate (non-weight prostate weight, mg)” value is “inactive”.
As for `CCc1c(/N=C2\N=C(N)N3N=C(C(F)(F)F)CC23C)ccc(C#N)c1C(F)(F)F` (stereo not drawn) [Compound 9, 4-(6-Amino-3a-methyl-2-trifluoromethyl-3,3a-dihydro-imidazo[1,5-b]pyrazol-4-ylideneamino)-3-ethyl-2-trifluoromethyl-benzonitrile], the change in vivo at 30 mg/kg in assay [1] (setting [3]) and in assay [1] (setting [4]) was 5 to 30% each time. Also, the inhibition in vivo at 30 mg/kg in assay [2] (setting [5]) is at least 30%; in assay [2] (setting [6]), 5 to 30%.
Regarding `CC12CC(C(F)(F)F)=NN1C(N)=N/C2=N\c1ccc(Br)c(C(F)(F)F)c1` (stereo not drawn) [Compound 10, 4-(4-Bromo-3-trifluoromethyl-phenylimino)-3a-methyl-2-trifluoromethyl-3a,4-dihydro-3H-imidazo[1,5-b]pyrazol-6-ylamine], the “% levator ani Stimulation” value in assay [1] (levator ani wet weight) was “inactive”. The “% Prostate Stimulation” value in assay [1] (ventral prostate wet weight) is “inactive”. Moreover, the inhibition in vivo at 30 mg/kg in assay [2] (setting [5]) and in assay [2] (setting [6]) was 5 to 30% in each case.
As to `CC12CC(c3c(F)c(F)c(F)c(F)c3F)=NN1C(N)=N/C2=N\c1ccc(C#N)c(C(F)(F)F)c1` (stereo not drawn) [Compound 11, 4-(6-Amino-3a-methyl-2-pentafluorophenyl-3,3a-dihydro-imidazo[1,5-b]pyrazol-4-ylideneamino)-2-trifluoromethyl-benzonitrile], the change in vivo at 30 mg/kg in assay [1] (setting [3]) and in assay [1] (setting [4]) was 5 to 30% each time.
With `C[C@]12CC(C(F)(F)F)=NN1C(NC(=O)C(F)(F)F)=N/C2=N\c1ccc(C#N)c(C(F)(F)F)c1` [Compound 13, N-[4-(4-Cyano-3-trifluoromethyl-phenylimino)-3aR-methyl-2-trifluoromethyl-3a,4-dihydro-3H-imidazo[1,5-b]pyrazol-6-yl]-2,2,2-trifluoro-acetamide], the change in vivo at 30 mg/kg in assay [1] (setting [3]) and in assay [1] (setting [4]) was at least 30% in each case. Besides, the inhibition in vivo at 30 mg/kg in assay [2] (setting [5]) is 5 to 30%; in assay [2] (setting [6]) it was at least 30%.
As to `C[C@]12CC(C(F)(F)F)=NN1C(NC(=O)Nc1ccc(I)cc1)=N/C2=N\c1ccc(C#N)c(C(F)(F)F)c1` [Compound 14, 1-[4-(4-Cyano-3-trifluoromethyl-phenylimino)-3aR-methyl-2-trifluoromethyl-3a,4-dihydro-3H-imidazo[1,5-b]pyrazol-6-yl]-3-(4-iodo-phenyl)-urea], the change in vivo at 30 mg/kg is at least 30% in assay [1] (setting [3]) and 5 to 30% in assay [1] (setting [4]). Moreover, the inhibition in vivo at 30 mg/kg in assay [2] (setting [6]) is 5 to 30%. Further, in assay [2] (seminal vesicle wet weight), the “Inhibition of seminal vesicle (non-weight seminal vesicle weight, mg)” value is “inactive”.
On to `CC12CC(C(F)(F)F)=NN1C(=N)O/C2=N\c1ccc(C#N)c(C(F)(F)F)c1` (stereo not drawn) [Compound 15, 4-(6-Imino-3a-methyl-2-trifluoromethyl-3,3a-dihydro-pyrazolo[1,5-c]oxazol-4-ylideneamino)-2-trifluoromethyl-benzonitrile], for which the change in vivo at 30 mg/kg in assay [1] (setting [3]) was at least 30%; in assay [1] (setting [4]), 5 to 30%. The inhibition in vivo at 30 mg/kg in assay [2] (setting [5]) and in assay [2] (setting [6]) was 5 to 30% in each case.

For the origin of these results see patent publication US7655683B2, “Imidazolopyrazole derivatives useful as selective androgen receptor modulators” (Janssen Pharmaceutica NV, priority 2006, dated 2010).
